Measured values from PubChem BioAssay AID336 (DTP/NCI, 2004).
Where “and” joins values, the source holds several entries; their conditions need not be identical. Equal values may be shown once. Toxic doses and inconclusive results are not listed.

Tested on: BDF1 mice, P388/VCR leukemia ip, median survival T/C
Test: NCI In Vivo Anticancer Drug Screen. Data for tumor model P388 Leukemia resistant to Vincristine; NSC 67574 (intraperitoneal) in B6D2F1 (BDF1) mice
Conditions: endpoint: median survival time, higher = longer survival
Protocol: The antitumor activity of compounds was measured in mice bearing transplantable tumors. Survival or tumor size were measured and the results are expressed as the measurement made in the treated group (T) divided by the measurement made in the vehicle treated control group (C). The tumor model used in this assay is P388 Leukemia resistant to Vincristine; NSC 67574 (intraperitoneal) in B6D2F1 (BDF1) mice

CC(=O)O[C@H]1C(=O)[C@@]2(C)[C@H]([C@H](OC(=O)c3ccccc3)[C@]3(O)C[C@H](OC(=O)[C@H](O)[C@@H](NC(=O)c4ccccc4)c4ccccc4)C(C)=C1C3(C)C)[C@]1(OC(C)=O)CO[C@@H]1C[C@@H]2O
T/C (dose: 21.6 mg/kg/injection, schedule: Q04DX003 (ip), vehicle: Klucel (hydroxypropylcellulose) (HPC)): 98 % of control
T/C (dose: 36.0 mg/kg/injection, schedule: Q04DX003 (ip), vehicle: Klucel (hydroxypropylcellulose) (HPC)): 93 % of control
T/C (dose: 60.0 mg/kg/injection, schedule: Q04DX003 (ip), vehicle: Klucel (hydroxypropylcellulose) (HPC)): 87 % of control

CN=C(NC)c1ccc(NC(=O)c2ccc(C(=O)Nc3ccc(C(=NC)NC)cc3)c(Cl)c2)cc1
T/C (dose: 18.0 mg/kg/injection, schedule: Q01DX010 (ip), vehicle: saline): 117 % of control
T/C (dose: 27.0 mg/kg/injection, schedule: Q01DX010 (ip), vehicle: saline): 95 % of control

COC1C(O)C(C)OC(OC2C(Oc3cccc4c(O)c5c(=O)oc6ccc(C)c7c(=O)oc(c34)c5c67)OC(C)C(O)C2O)C1O (stereo not given)
T/C (dose: 43.2 mg/kg/injection, schedule: Q04DX003 (ip), vehicle: acid diluted with saline): 121 % of control
T/C (dose: 72.0 mg/kg/injection, schedule: Q04DX003 (ip), vehicle: acid diluted with saline): 114 % of control
T/C (dose: 200.0 mg/kg/injection, schedule: Q04DX003 (ip), vehicle: acid diluted with saline): 123 % of control

CC(=O)O[C@]1(C(C)=O)CC[C@H]2[C@@H]3C[C@H](C)C4=CC(=O)C=C[C@]4(C)[C@@]3(F)[C@@H](O)C[C@@]21C
T/C (dose: 12.5 mg/kg/injection, schedule: Q01DX010 (sc), vehicle: steriod suspending solution): 103 % of control
T/C (dose: 25.0 mg/kg/injection, schedule: Q01DX010 (sc), vehicle: steriod suspending solution): 116 % of control
T/C (dose: 50.0 mg/kg/injection, schedule: Q01DX010 (sc), vehicle: steriod suspending solution): 110 % of control
T/C (dose: 100.0 mg/kg/injection, schedule: Q01DX010 (sc), vehicle: steriod suspending solution): 113 % of control

Nc1nc(N)c2nc(CNc3ccc(C(=O)NC(CCC(=O)O)C(=O)O)cc3)cnc2n1 (stereo not given)
T/C (dose: 25.0 micrograms/kg/injection, schedule: Q01DX010 (ip), vehicle: other): 118 % of control
T/C (dose: 50.0 micrograms/kg/injection, schedule: Q01DX010 (ip), vehicle: other): 114 % of control
T/C (dose: 200.0 micrograms/kg/injection, schedule: Q01DX010 (ip), vehicle: other): 166 % of control and 175 % of control

CC[C@]1(O)C[C@H]2CN(CCc3c([nH]c4ccccc34)[C@@](C(=O)OC)(c3cc4c(cc3OC)N(C=O)[C@H]3[C@@](O)(C(=O)OC)[C@H](OC(C)=O)[C@]5(CC)C=CCN6CC[C@]43[C@@H]65)C2)C1
T/C (dose: 0.03 mg/kg/injection, schedule: Q01DX010 (ip), vehicle: saline): 110 % of control
T/C (dose: 0.06 mg/kg/injection, schedule: Q01DX010 (ip), vehicle: saline): 113 % of control
T/C (dose: 0.12 mg/kg/injection, schedule: Q01DX010 (ip), vehicle: saline): 114 % of control
T/C (dose: 0.36 mg/kg/injection, schedule: Q04DX003 (ip), vehicle: saline): 106 % of control
T/C (dose: 0.6 mg/kg/injection, schedule: Q04DX003 (ip), vehicle: saline): 109 % of control
T/C (dose: 1.0 mg/kg/injection, schedule: Q04DX003 (ip), vehicle: saline): 113 % of control
T/C (dose: 1.67 mg/kg/injection, schedule: Q04DX003 (ip), vehicle: saline): 107 % of control
T/C (dose: 250.0 micrograms/kg/injection, schedule: Q04DX003 (ip), vehicle: saline): 111 % of control
T/C (dose: 324.0 micrograms/kg/injection, schedule: Q04DX003 (ip), vehicle: saline): 98 % of control and 103 % of control
T/C (dose: 360.0 micrograms/kg/injection, schedule: Q04DX003 (ip), vehicle: saline): 101 % of control and 104 % of control
T/C (dose: 389.0 micrograms/kg/injection, schedule: Q04DX003 (ip), vehicle: saline): 109 % of control
T/C (dose: 432.0 micrograms/kg/injection, schedule: Q04DX003 (ip), vehicle: saline): 106 % of control
T/C (dose: 500.0 micrograms/kg/injection, schedule: Q04DX003 (ip), vehicle: saline): 107 % of control
T/C (dose: 540.0 micrograms/kg/injection, schedule: Q04DX003 (ip), vehicle: saline): 99 % of control and 104 % of control
T/C (dose: 600.0 micrograms/kg/injection, schedule: Q04DX003 (ip), vehicle: saline): 99 % of control and 103 % of control
T/C (dose: 648.0 micrograms/kg/injection, schedule: Q04DX003 (ip), vehicle: saline): 118 % of control
T/C (dose: 720.0 micrograms/kg/injection, schedule: Q04DX003 (ip), vehicle: saline): 104 % of control
T/C (dose: 900.0 micrograms/kg/injection, schedule: Q04DX003 (ip), vehicle: saline): 104 % of control and 111 % of control
T/C (dose: 1000.0 micrograms/kg/injection, schedule: Q04DX003 (ip), vehicle: saline): 95 % of control and 104 % of control and 108 % of control
T/C (dose: 1080.0 micrograms/kg/injection, schedule: Q04DX003 (ip), vehicle: saline): 113 % of control
T/C (dose: 1200.0 micrograms/kg/injection, schedule: Q04DX003 (ip), vehicle: saline): 107 % of control
T/C (dose: 1500.0 micrograms/kg/injection, schedule: Q04DX003 (ip), vehicle: saline): 99 % of control and 101 % of control
T/C (dose: 1670.0 micrograms/kg/injection, schedule: Q04DX003 (ip), vehicle: saline): 100 % of control
T/C (dose: 1800.0 micrograms/kg/injection, schedule: Q04DX003 (ip), vehicle: saline): 115 % of control
T/C (dose: 2000.0 micrograms/kg/injection, schedule: Q04DX003 (ip), vehicle: saline): 108 % of control and 111 % of control
